Where two headings read alike, the source gives them in different places.
Experiments:
[1] = test system: Staphylococcus agalactiae; assay: organism not typed; assay type: cell-based, Streptococcus agalactiae; conditions: for viability at 10000 µM: GSH 10 mM; for viability at 15000 µM: GSH 15 mM; for viability at 30000 µM: GSH 30 mM
Protocol: The treatments shown in column 1 of Table 5 were tested against four strains of […] agalactiae, (veterinary strains ex Cow mastitis). […] The treatments shown in column 1 of Table 13 were tested against four strains of […] agalactiae, (veterinary strains ex Cow mastitis).

Escherichia coli = assay: Biofilm viability, resazurin assay, Escherichia coli clinical isolates; assay type: cell-based; conditions: read-out: % bacterial viability; for viability at 10000 µM: GSH 10 mM; for viability at 15000 µM: GSH 15 mM; for viability at 30000 µM: GSH 30 mM
Protocol: (§1) Bacterial isolates were grown in Tryptone Soya Broth (TSB) medium for 24 hours at 37° C., in a shaking incubator set at 150 rpm. After this time the organisms were harvested by centrifugation (5000×g, 5 min at 10° C.). After centrifugation, the supernatant liquid was removed and the bacterial pellet was suspended in 1×Phosphate Buffered Saline (PBS). To initiate biofilm growth, the bacterial suspension from PBS was immediately re-suspended in TSB and 250 μL of bacterial cell suspension (OD600=0.5±0.05) were added into the wells of 96-well plates (Corning Corp. USA) and incubated at 37° C. for 48 h at 150 r.p.m.
(§2) After 24 h, treated biofilms supernatant were replaced with 200 μL of 1×PBS, followed by addition of 15 μL of a 0.05% w/v solution of resazurin (Sigma-Aldrich), and incubated further at 37° C., 150 r.p.m.
(§3) After a further 24 h, the fluorescent intensity of the biofilm was determined at Ex544 nm and Em590 nm (Tecan infinite M1000 pro microplate reader). Results are plotted as percentage (%) of bacterial vaiability calculated based on fluorescent intensity. Control or untreated bacterial biofilm fluorescent intensity always considered as 100% bacterial viability and % viability under rest of treatment conditions were calculated with reference to control.
(§4) It should be noted that the Resazurin assay works by recording fluorescence intensity and depends upon two factors (total number of bacteria and total number of viable bacteria in a given biofilm sample).
The treatments shown in column 1 of Table 9 were tested against three clinical isolates of Enterobacter species.

biofilms = conditions: GSH at 30 milli Molar; also non-Pseudomonad organisms (FIGS. 1-13)
Protocol: as §1, with “r.p.m. […]” for “r.p.m.”
as §3, §4

E aerogenes = assay: Biofilm viability, resazurin assay, Enterobacter species: E aerogenes; assay type: cell-based; conditions: E aerogenes 359475 Sternum, read-out: % bacterial viability
Protocol: as §1, §2, §3, §4
(§5) The treatments shown in column 1 of Table 8 were tested against three clinical isolates of Enterobacter species.

Pseudomonas aeruginosa = assay: Biofilm viability, resazurin assay, Pseudomonas aeruginosa clinical isolates; assay type: cell-based; conditions: read-out: % bacterial viability; for viability at 10000 µM: GSH 10 mM; for viability at 15000 µM: GSH 15 mM; for viability at 30000 µM: GSH 30 mM
Streptococcus pyogenes = assay: Biofilm viability, resazurin assay, Streptococcus pyogenes clinical isolates; assay type: cell-based; conditions: read-out: % bacterial viability; for viability at 10000 µM: GSH 10 mM; for viability at 15000 µM: GSH 15 mM; for viability at 30000 µM: GSH 30 mM
Protocol: as §1, §2, §3, §4
The treatments shown in column 1 of Table 10 were tested against three clinical isolates of Enterobacter species. The treatments used are given in column 1, and the % bacterial viability for each strain tested are given in the subsequent columns (see also FIG. 9).

[2] = test system: methicillin-sensitive Staphylococcus aureus; assay: microbe, parasite or virus in culture; assay type: cell-based; conditions: MSSA
Protocol: The treatments shown in column 1 of Table 4 were tested against three strains of methicillin-sensitive Staphylococcus aureus. […] The treatments shown in column 1 of Table 12 were tested against three strains of methicillin-sensitive Staphylococcus aureus.

Klebsiella pneumoniae = assay: Biofilm viability, resazurin assay, Klebsiella pneumoniae clinical isolates; assay type: cell-based; conditions: read-out: % bacterial viability; for viability at 10000 µM: GSH 10 mM; for viability at 15000 µM: GSH 15 mM; for viability at 30000 µM: GSH 30 mM
Protocol: as §1, §2, §3, §4
The treatments shown in column 1 of table 7 were tested against three clinical isolates of Klebsiella pneumoniae.

E. cloacae = assay: Biofilm viability, resazurin assay, Enterobacter species: E. cloacae; assay type: cell-based; conditions: read-out: % bacterial viability; for viability at 10000 µM: GSH 10 mM; for viability at 15000 µM: GSH 15 mM; for viability at 30000 µM: GSH 30 mM
Protocol: as §1, §2, §3, §4, §5

[3] = test system: methicillin-resistant Staphylococcus aureus; assay: microbe, parasite or virus in culture; conditions: MRSA
[4] = read-out: % bacterial viability, S. agalactiae # 30
[5] = read-out: % bacterial viability, S. agalactiae # 44
[6] = read-out: % bacterial viability, S. agalactiae # 70
[7] = read-out: % bacterial viability, S. agalactiae # 88
[8] = read-out: % bacterial viability, S. agalactiae # 106
[9] = E. cloacae 359315 Left foot wound

In the case of `N[C@@H](CCC(=O)N[C@@H](CS)C(=O)NCC(=O)O)C(=O)O` [GSH, glutathione], the viability at 10000 µM [1, 4] is reported as 104%, the viability at 15000 µM [1, 4] is reported as 80.7% and the viability at 30000 µM [1, 4] is reported as 35.3%. For the same compound, the viability at 10000 µM [1, 5] was 87%, the viability at 15000 µM [1, 5] was 73.9% and the viability at 30000 µM [1, 5] was 29.2%. The viability at 10000 µM [1, 6] was 89.2%, the viability at 15000 µM [1, 6] was 79.4% and the viability at 30000 µM [1, 6] was 38.3%. The viability at 10000 µM [1, 7] was 88%, the viability at 15000 µM [1, 7] was 81.6% and the viability at 30000 µM [1, 7] was 25%. It also gave a viability at 10000 µM [1, 8] of 103%, a viability at 15000 µM [1, 8] of 83.2% and a viability at 30000 µM [1, 8] of 29.2%. For the same compound, the viability at 10000 µM (Escherichia coli; 362805 Exit) was 75.7%, the viability at 15000 µM (Escherichia coli; 362805 Exit) was 71.8% and the viability at 30000 µM (Escherichia coli; 362805 Exit) was 0.7%. The viability at 10000 µM (Escherichia coli; 365714 Wound) was 108%, the viability at 15000 µM (Escherichia coli; 365714 Wound) was 93.4% and the viability at 30000 µM (Escherichia coli; 365714 Wound) was 12.3%. For the same compound, the viability at 10000 µM (Escherichia coli; 366290 Drain fluid) was 69.8%, the viability at 15000 µM (Escherichia coli; 366290 Drain fluid) was 68.7% and the viability at 30000 µM (Escherichia coli; 366290 Drain fluid) was 3.9%. The “killing/disrupting biofilms compared with antibiotics” value (biofilms) was “significantly higher effect than antibiotics”, the viability at 10000 µM (E aerogenes; GSH 10 mM) was 79% and the viability at 15000 µM (E aerogenes; GSH 15 mM) was 55.1%. For the same compound, the viability at 30000 µM (E aerogenes; GSH 30 mM) was 14.6%, the viability at 10000 µM (Pseudomonas aeruginosa; 364077 Scalp wound) was 95.6% and the viability at 15000 µM (Pseudomonas aeruginosa; 364077 Scalp wound) was 93%. It also gave a viability at 30000 µM (Pseudomonas aeruginosa; 364077 Scalp wound) of 30.3%, a viability at 10000 µM (Pseudomonas aeruginosa; 365707 Left ankle wound) of 104% and a viability at 15000 µM (Pseudomonas aeruginosa; 365707 Left ankle wound) of 101%. For the same compound, the viability at 30000 µM (Pseudomonas aeruginosa; 365707 Left ankle wound) was 11.2%, the viability at 10000 µM (Pseudomonas aeruginosa; PA0053 DFU) was 89.8% and the viability at 15000 µM (Pseudomonas aeruginosa; PA0053 DFU) was 74.5%. It also gave a viability at 30000 µM (Pseudomonas aeruginosa; PA0053 DFU) of 7.3%, a viability at 10000 µM (Streptococcus pyogenes; 361194 Left leg boil) of 55.6% and a viability at 15000 µM (Streptococcus pyogenes; 361194 Left leg boil) of 35.8%. The viability at 30000 µM (Streptococcus pyogenes; 361194 Left leg boil) was 4.3%, the viability at 10000 µM (Streptococcus pyogenes; 371982 Skin Wound) was 99.8% and the viability at 15000 µM (Streptococcus pyogenes; 371982 Skin Wound) was 90.2%. It also gave a viability at 30000 µM (Streptococcus pyogenes; 371982 Skin Wound) of 15.4%, a viability at 10000 µM (Streptococcus pyogenes; 386596 Head Wound) of 67.7% and a viability at 15000 µM (Streptococcus pyogenes; 386596 Head Wound) of 42.7%. The viability at 30000 µM (Streptococcus pyogenes; 386596 Head Wound) was 22.3%, the viability at 10000 µM ([2]; read-out: % bacterial viability, MSSA - 0800 DFU, GSH 10 mM) was 82.4% and the viability at 15000 µM ([2]; read-out: % bacterial viability, MSSA - 0800 DFU, GSH 15 mM) was 61.7%. For the same compound, the viability at 30000 µM ([2]; read-out: % bacterial viability, MSSA - 0800 DFU, GSH 30 mM) was 20.1%, the viability at 10000 µM ([2]; read-out: % bacterial viability, MSSA - 34397 Left elbow, GSH 10 mM) was 88.7% and the viability at 15000 µM ([2]; read-out: % bacterial viability, MSSA - 34397 Left elbow, GSH 15 mM) was 61.3%. It also gave a viability at 30000 µM ([2]; read-out: % bacterial viability, MSSA - 34397 Left elbow, GSH 30 mM) of 1.06%, a viability at 10000 µM ([2]; read-out: % bacterial viability, MSSA - 34654 Right toe, GSH 10 mM) of 86.1% and a viability at 15000 µM ([2]; read-out: % bacterial viability, MSSA - 34654 Right toe, GSH 15 mM) of 70.5%. The viability at 30000 µM ([2]; read-out: % bacterial viability, MSSA - 34654 Right toe, GSH 30 mM) was 15.3%, the viability at 10000 µM (Klebsiella pneumoniae; 374450 Catheter urine) was 86% and the viability at 15000 µM (Klebsiella pneumoniae; 374450 Catheter urine) was 72.8%. For the same compound, the viability at 30000 µM (Klebsiella pneumoniae; 374450 Catheter urine) was 16.8%, the viability at 10000 µM (Klebsiella pneumoniae; 377951 Left hip wound) was 81.6% and the viability at 15000 µM (Klebsiella pneumoniae; 377951 Left hip wound) was 70.8%. It also gave a viability at 30000 µM (Klebsiella pneumoniae; 377951 Left hip wound) of 9.13%, a viability at 10000 µM (Klebsiella pneumoniae; 385261 Neck wound) of 78.8% and a viability at 15000 µM (Klebsiella pneumoniae; 385261 Neck wound) of 62.5%. For the same compound, the viability at 30000 µM (Klebsiella pneumoniae; 385261 Neck wound) was 14.1%, the viability at 10000 µM (E. cloacae; E. cloacae 357768 Ear) was 62.8% and the viability at 15000 µM (E. cloacae; E. cloacae 357768 Ear) was 38.9%. It also gave a viability at 30000 µM (E. cloacae; E. cloacae 357768 Ear) of 0%, a viability at 10000 µM (E. cloacae; [9]) of 84.7% and a viability at 15000 µM (E. cloacae; [9]) of 74%. For the same compound, the viability at 30000 µM (E. cloacae; [9]) was 19.5%, the viability at 10000 µM ([3]; read-out: % bacterial viability, MRSA 27060 Left leg, GSH 10 mM) was 88.8% and the viability at 15000 µM ([3]; read-out: % bacterial viability, MRSA 27060 Left leg, GSH 15 mM) was 65.2%. It also gave a viability at 30000 µM ([3]; read-out: % bacterial viability, MRSA 27060 Left leg, GSH 30 mM) of 1.02%, a viability at 10000 µM ([3]; read-out: % bacterial viability, MRSA 30616 Chin vesicle, GSH 10 mM) of 73.1% and a viability at 15000 µM ([3]; read-out: % bacterial viability, MRSA 30616 Chin vesicle, GSH 15 mM) of 58.8%. For the same compound, the viability at 30000 µM ([3]; read-out: % bacterial viability, MRSA 30616 Chin vesicle, GSH 30 mM) was 4.54%, the viability at 10000 µM ([3]; read-out: % bacterial viability, MRSA - 0799 DFU, GSH 10 mM) was 86.7% and the viability at 15000 µM ([3]; read-out: % bacterial viability, MRSA - 0799 DFU, GSH 15 mM) was 75%. It also gave a viability at 30000 µM ([3]; read-out: % bacterial viability, MRSA - 0799 DFU, GSH 30 mM) of 33.1%.

Reference: US20200016231A1, “BIOFILM DISRUPTING COMPOSITION” (Whiteley Corporation Pty Ltd, priority 2016, published 2020)
